Key:
[1] = test system: CSQ-Tg mice; assay: Effect on survival rate of heart failure model animals (CSQ-Tg mice); format: in vivo; conditions: CSQ-Tg female mice, 5 weeks old, 30 mg/kg body weight/day oral QD for 30 days, n=30; log-rank test p<0.001 vs vehicle
Description: (§1) Calsequestrin (CSQ) cardiac specific transgenic mice (CSQ-Tg mice), which were reported in Larry R. Jones et al., J. Clin. Invest. 101: 1385-1393, 1998, were obtained from University of Pennsylvania, breeded in our company and put in use. In tests, using male and female mice, administration of a medicament was started on and after the mice reached 5 weeks old. The animals were raised in the conditions: room temperature: 20 to 26° c., humidity: 40 to 70%, illumination time: 12 hours/day (7:00-19:00) by giving a solid feed (CE-2, manufactured by CLEA Japan, Inc.) and tap water. In the CSQ-Tg mice, as already reported, Ca^2+ intracellular release was suppressed; myocardial contraction declined and cardiac output decreased. Cardiac hypertrophy and heart failure developed.
In this example, effect of compound A′ on survival rate of heart failure model animals was examined.
Compound A′ was orally administered to CSQ-Tg female mice (n=30) of 5 weeks old in a dosage of 30 mg/kg body weight/day once per day (QD) for 30 days. To negative control (vehicle administration group) mice, a 0.5% aqueous methylcellulose solution was administered (n=30).

[2] = test system: CSQ-Tg mice; assay: Atrial weight reduction effect in heart failure model animal (CSQ-Tg mice); format: in vivo; conditions: CSQ-Tg male mice, 5 weeks old, 30 mg/kg body weight/day oral QD for 14 days, n=7; p<0.05 vs vehicle (t-test)
Description: as §1
In this example, using CSQ-Tg mice as a heart failure model animal, the atrial weight reduction effect of compound A′ was evaluated.
Compound A′ was suspended (10 mL/kg) in a 0.5% aqueous methylcellulose solution (hereinafter in Examples, sometimes referred to as a “vehicle”) and orally administered to CSQ-Tg male mice of 5 weeks old with heart failure in a dosage of 30 mg/kg body weight/day once per day (QD) for 14 days (n=7). To negative control (vehicle administration group) mice, a 0.5% aqueous methylcellulose solution was administered (n=9). Thereafter, the atrial weight of the mice was measured.

[3] = test system: CSQ-Tg mice; assay: Improvement effect on left ventricular hypertrophy and lung weight increase in CSQ-Tg mice; format: in vivo; conditions: CSQ-Tg female mice, 5 weeks old, 30 mg/kg body weight/day oral QD for 14 days, n=10; p<0.05 vs vehicle (t-test)
Description: as §1
In this example, the effect of compound A′ in improving left ventricular hypertrophy and lung weight increase caused by heart failure was examined.
Compound A′ was suspended in a 0.5% aqueous methylcellulose solution (10 mL/kg) and orally administered to CSQ-Tg female mice of 5 weeks old with heart failure in a dosage of 30 mg/kg body weight/day once per day (QD) for 14 days (n=10). […] Thereafter, lung weight (Lung), left-ventricle weight (LV) and body weight (BW) were individually measured and were standardized with the BW.

[4] = drug administered after the cardiac load is given; Non patent literature 6; cited from earlier work
[5] = test system: transverse aortic constriction (TAC) model; conditions: Non patent literature 5; cited from earlier work

Compound | Survival rate (Kaplan-Meier, FIG. 1) [1] | Left atrial weight, average value [2] | LV/BW (left-ventricle weight standardized with body weight), average value ± standard deviation [3] | Lung/BW (lung weight standardized with body weight), average value ± standard deviation [3] | Cardiac hypofunction [4] | Cardiac hypertrophy [5]
CCc1ccc(C(CC)(CC)NC(=O)c2c(C)nn3c2N[C@@H](c2ccccc2)CC3(C)C)cc1 [Compound A′] | significantly improved | 8.4 mg | 7.9 ± 1.0 | 6.8 ± 1.3 | – | –
C[C@@H](N[C@H]1CCCC[C@@H]1NC(=O)c1ccc(Cl)cc1)c1cccc2ccccc12 [Calhex231] | – | – | – | – | cardiac hypofunction is not improved | cardiac hypertrophy is improved
